≈ marks a conversion by molar mass, not a printed value. Where “and” joins values, the source holds several entries; their conditions need not be identical. Identical values can stand only once. One block for each molecule: values may come before it.
Columns and labels:
UACC-62 = assay: Cytotoxicity against human UACC-62 cells; assay type: functional; conditions: read-out: LC50 (the source's name)
M14 = assay: Cytotoxicity against human M14 cells; assay type: functional; conditions: read-out: LC50 (the source's name)
NCI-H23 = assay: Cytotoxicity against human NCI-H23 cells; assay type: functional; conditions: read-out: LC50 (the source's name)
A498 = assay: Cytotoxicity against human A498 cells; assay type: functional; conditions: read-out: LC50 (the source's name)
MCF7 [1] = assay: Cytotoxicity against human MCF7 cells assessed as reduction in cell viability incubated for 72 hrs by MTT assay; assay type: functional, cell-based; conditions: MCF7, 72 h
MDA-MB-231 = assay: Cytotoxicity against human MDA-MB-231 cells assessed as reduction in cell viability incubated for 72 hrs by MTT assay; assay type: functional, cell-based; conditions: MDA-MB-231, 72 h
MCF7 [2] = assay: Cytotoxicity against human wild type MCF7 cells; assay type: functional, cell-based
MCF7-DOX [3] = assay: Cytotoxicity against human MCF7-DOX cells; assay type: functional, cell-based
[4] = Cytotoxicity against human MCF7/Mitox cells; assay type: functional, cell-based
[5] = target: Stimulator of interferon genes protein (Homo sapiens, UniProt Q86WV6); assay: Activation of STING pathway in human 293T-hSTING-R232 cells incubated for 48 hrs by QUANTI-Luc assay; assay type: cell-based, 293T-hSTING-R232 cell
[6] = Cytotoxicity against human MDA-MB-231/BCRP cells assessed as reduction in cell growth by resazurin reduction assay; assay type: functional, cell-based
HL-60 [7] = assay: Cytotoxicity against human HL-60 cells assessed as cell growth inhibition incubated for 72 hrs by tryphan blue staining based analysis; assay type: functional; conditions: HL-60, 72 h
MCF7 [8] = assay: Cytotoxicity against human wild type MCF7 cells assessed as reduction in cell viability measured after 72 hrs by SRB assay; assay type: functional, cell-based; conditions: MCF7, 72 h
MCF7-DOX [9] = assay: Cytotoxicity against human doxorubicin resistant MCF7-DOX cells assessed as reduction in cell viability incubated for 72 hrs by SRB assay; assay type: functional, cell-based
[10] = Cytotoxicity against human mitoxantrone resistant human MCF7/Mitox cells assessed as reduction in cell viability incubated for 72 hrs by SRB assay; assay type: functional, cell-based
PC-3 [11] = assay: Antiproliferative activity against human PC-3 cells assessed as reduction in cell viability measured after 24 hrs by MTT assay; assay type: functional, cell-based; conditions: PC-3, 24 h
[12] = target: MAP/microtubule affinity-regulating kinase 4 (Homo sapiens, UniProt Q96L34); assay: Inhibition of human MARK4 ATPase activity using ATP as substrate incubated for 10 to 20 mins by Biomol green reagent based ELISA analysis
MCF7 [13] = assay: Antiproliferative activity against human MCF7 cells assessed as reduction in cell viability incubated for 48 hrs by MTT assay; assay type: functional, cell-based; conditions: MCF7, 48 h
SW1573 = assay: Cytotoxicity against human SW1573 cells assessed as reduction in cell viability incubated for 72 hrs by SRB assay; assay type: functional, cell-based; conditions: SW1573, 72 h
HL-60 [14] = assay: Anticancer activity against human HL-60 cells assessed as cell growth inhibition incubated for 72 hrs by MTT assay; assay type: functional, cell-based; conditions: HL-60, 72 h
P388 = assay: Cytotoxicity against mouse P388 cells; assay type: functional, cell-based
HL-60 [15] = assay: Cytotoxicity against human HL-60 cells assessed as cell growth inhibition incubated for 72 hrs by SRB assay; assay type: functional, cell-based; conditions: HL-60, 72 h
HL60/ADR = assay: Cytotoxicity against drug resistant human HL60/ADR cells assessed as inhibition of cell growth incubated for 72 hrs by SRB assay; assay type: functional, cell-based
[16] = Cytotoxicity against drug resistant human HL60/VCR assessed as inhibition of cell growth incubated for 72 hrs by SRB assay; assay type: functional, cell-based
CCRF-CEM = assay: Cytotoxicity against human CCRF-CEM cells assessed as cell growth inhibition; assay type: functional, cell-based
[17] = Cytotoxicity against human KB-ChR-8-5 cells assessed as reduction in cell growth incubated for 7 days in presence of vinblastine; assay type: functional, cell-based; conditions: KB-ChR-8-5, 168 h
[18] = Cytotoxicity against human SW1398 cells assessed as cell growth inhibition incubated for 72 hrs by SRB assay; assay type: functional, cell-based; conditions: SW1398, 72 h
MCF7 [19] = assay: Cytotoxicity against human MCF7 cells assessed as cell growth inhibition incubated for 72 hrs by SRB assay; assay type: functional, cell-based; conditions: MCF7, 72 h
MCF7 [20] = assay: Cytotoxicity against human MCF7 cells assessed as reduction in cell growth incubated for 72 hrs by SRB assay; assay type: functional, cell-based; conditions: MCF7, 72 h
WiDr = assay: Cytotoxicity against human WiDr cells assessed as cell growth inhibition incubated for 72 hrs by SRB assay; assay type: functional, cell-based
Raji = assay: Antitumor activity against human Raji cells xenografted in ICR mouse assessed as reduction in tumor growth measured after 20 weeks; assay type: functional; parameters: scale not given: the % may be the effect or the level left
[21] = Cytotoxicity against human KKU-213C assessed as reduction in cell viability incubated for 24 hrs by SRB assay; assay type: functional, cell-based
HepG2 [22] = assay: Cytotoxicity against human HepG2 cells assessed as reduction in cell viability incubated for 24 hrs by SRB assay; assay type: functional, cell-based; conditions: HepG2, 24 h
MCF7 [23] = assay: Cytotoxicity against human MCF7 cells assessed as reduction in cell viability incubated for 48 hrs by alamar blue reagent based fluorescence assay; assay type: functional; conditions: MCF7, 48 h
HepG2 [24] = assay: Cytotoxicity against human HepG2 cells assessed as reduction in cell viability incubated for 48 hrs by alamar blue reagent based fluorescence assay; assay type: functional; conditions: HepG2, 48 h
MCF7 [25] = assay: Cytotoxicity against human MCF7 cells assessed as reduction in cell viability by SRB assay; assay type: functional, cell-based
MCF7 [26] = assay: Antitumor activity against human MCF7 cells xenografted in BALB/c nude mouse assessed as inhibition of tumor growth at 1 mg/kg, ip administered once daily for 21 days; assay type: functional; conditions: MCF7, 504 h, time 21 day, read-out: TGI
MCF7 [27] = assay: Cytotoxicity against human MCF7 cells assessed as reduction in cell viability measured after 72 hrs by MTT assay; assay type: functional, cell-based; conditions: MCF7, 72 h
HeLa = assay: Cytotoxicity against human HeLa cells assessed as reduction in cell viability measured after 72 hrs by MTT assay; assay type: functional, cell-based
A-431 = assay: Cytotoxicity against human A-431 cells assessed as reduction in cell viability measured after 72 hrs by MTT assay; assay type: functional, cell-based; conditions: A-431, 72 h
MCF7 [28] = assay: Antiproliferative activity against human MCF7 cells assessed as reduction in cell viability incubated for 72 hrs by MTT assay; assay type: functional, cell-based; conditions: MCF7, 72 h
HepG2 [29] = assay: Antiproliferative activity against human HepG2 cells assessed as reduction in cell viability incubated for 72 hrs by MTT assay; assay type: functional, cell-based; conditions: HepG2, 72 h
A549 = assay: Antiproliferative activity against human A549 cells assessed as reduction in cell viability incubated for 72 hrs by MTT assay; assay type: functional, cell-based; conditions: A549, 72 h
PC-3 [30] = assay: Antiproliferative activity against human PC-3 cells assessed as reduction in cell viability incubated for 72 hrs by MTT assay; assay type: functional, cell-based; conditions: PC-3, 72 h

Sequence of MAP/microtubule affinity-regulating kinase 4 (Q96L34 whole entry): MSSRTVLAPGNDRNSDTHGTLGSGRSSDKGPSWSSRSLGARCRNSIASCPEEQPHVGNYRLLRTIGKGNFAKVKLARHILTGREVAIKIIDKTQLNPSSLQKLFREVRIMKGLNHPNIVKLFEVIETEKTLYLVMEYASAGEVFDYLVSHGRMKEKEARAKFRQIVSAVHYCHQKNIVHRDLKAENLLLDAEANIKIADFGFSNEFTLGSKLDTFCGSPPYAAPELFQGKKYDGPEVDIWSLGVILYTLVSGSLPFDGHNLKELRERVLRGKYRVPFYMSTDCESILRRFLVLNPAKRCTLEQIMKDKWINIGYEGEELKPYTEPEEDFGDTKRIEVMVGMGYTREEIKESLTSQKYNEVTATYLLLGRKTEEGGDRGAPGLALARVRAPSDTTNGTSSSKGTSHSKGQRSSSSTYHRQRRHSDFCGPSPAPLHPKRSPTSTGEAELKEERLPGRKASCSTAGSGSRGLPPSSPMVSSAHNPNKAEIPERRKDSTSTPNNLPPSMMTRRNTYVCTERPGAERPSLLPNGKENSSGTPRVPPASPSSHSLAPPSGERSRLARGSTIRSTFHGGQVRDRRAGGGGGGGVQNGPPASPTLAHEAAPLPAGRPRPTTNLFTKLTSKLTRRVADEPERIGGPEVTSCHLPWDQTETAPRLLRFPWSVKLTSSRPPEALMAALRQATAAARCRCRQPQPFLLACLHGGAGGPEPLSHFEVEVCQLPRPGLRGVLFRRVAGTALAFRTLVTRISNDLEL
Sequence of Stimulator of interferon genes protein (Q86WV6 whole entry): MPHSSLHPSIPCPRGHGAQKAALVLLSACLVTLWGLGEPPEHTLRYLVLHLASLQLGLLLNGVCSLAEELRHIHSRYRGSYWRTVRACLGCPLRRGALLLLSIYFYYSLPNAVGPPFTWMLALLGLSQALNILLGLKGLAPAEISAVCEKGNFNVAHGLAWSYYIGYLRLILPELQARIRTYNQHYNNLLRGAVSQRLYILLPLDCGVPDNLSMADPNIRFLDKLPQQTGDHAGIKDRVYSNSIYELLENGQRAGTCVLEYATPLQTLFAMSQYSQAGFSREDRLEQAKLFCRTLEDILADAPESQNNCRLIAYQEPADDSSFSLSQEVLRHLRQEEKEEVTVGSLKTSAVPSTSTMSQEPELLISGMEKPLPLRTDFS

Compound: COc1cc2c(cc1OCCCNC(=O)c1cccc3c(O)c4ccccc4nc13)N=C[C@@H]1CCCN1C2=O
- CC50 (UACC-62): < 0.01 µM
- CC50 (M14): < 0.01 µM
- CC50 (NCI-H23): 0.07 µM
- CC50 (A498): 0.05 µM

Compound: CCOC(=O)c1c(C)nc(NNC(=O)c2cccc3c(=O)c4ccccc4[nH]c23)nc1-c1ccc(F)cc1
- IC50 (MCF7 [1]): 7.3 µM

Compound: CCOC(=O)c1c(C)nc(NNC(=O)c2cccc3c(=O)c4ccccc4[nH]c23)nc1-c1ccccc1F
- IC50 (MDA-MB-231): 7.12 µM

Compound: CCOC(=O)c1c(C)nc(NNC(=O)c2cccc3c(=O)c4ccccc4[nH]c23)nc1-c1ccc(OC)cc1
- IC50 (MDA-MB-231): 6.28 µM

Compound: Cc1ccc(NC(=O)c2cccc3c(=O)c4ccccc4[nH]c23)cc1
- IC50 (MCF7 [2]): 6.5 µM
- IC50 (MCF7-DOX [3]): 8.3 µM
- IC50 [4]: 7.4 µM

- EC50 [5]: 134 µM
Compound: COc1cc2c(=O)c3cccc(CC(=O)O)c3[nH]c2c(C)c1C

Compound: COc1cc(OC)c2c(=O)c3ccccc3n(C)c2c1
- IC50 [6]: 3.38 µM

Compound: CCOC(=O)c1c(C)nc(NNC(=O)c2cccc3c(=O)c4ccccc4[nH]c23)nc1-c1ccc(CC(C)C)cc1
- IC50 (MCF7 [1]): 4.32 µM
- IC50 (MDA-MB-231): 8.61 µM

Compound: CCN(CC)CCCCn1c2ccccc2c(=O)c2c(OC(C)=O)cc(OC(C)=O)cc21
- IC50 (HL-60 [7]): 0.45 µM

Compound: O=C(c1ccc2c(c1)c(=O)c1ccccc1n2CCCCO[N+](=O)[O-])N1CCOCC1
- IC50 (MCF7 [8]): 0.8 µM
- IC50 (MCF7-DOX [9]): > 1.9 µM
- IC50 [10]: 0.8 µM and > 2.7 µM

- IC50 (PC-3 [11]): 1.2 µM
Compound: CN(C)CCNC(=O)c1ccc([N+](=O)[O-])c2[nH]c3ccccc3c(=O)c12

- IC50 [12]: 1.8 µM
- IC50 (MCF7 [13]): 5.2 µM
Compound: Cc1ccc(NC(=O)Cn2c3ccccc3c(=O)c3cc(C)ccc32)cc1

Compound: O=C(NN1CCN(c2ccccc2)CC1)c1cccc2c(=O)c3ccccc3[nH]c12
- IC50 (MCF7 [2]): 4.5 µM
- IC50 (MCF7-DOX [3]): 6.6 µM
- IC50 [4]: 5.1 µM

Compound: O=c1c2ccccc2n(CCCCN2CCN(CCO)CC2)c2c(F)cccc12
- IC50 (SW1573): 5.1 µM

- IC50 (HL-60 [14]): 0.007 µM
Compound: N#Cc1c(F)c(Cl)c2[nH]c3ccccc3c(=O)c2c1F

Compound: CN(C)CCn1c(=O)c2cc(N)cc3c(=O)c4ccccc4n(c1=O)c32
- IC50 (P388): 63 µM

Compound: CC(=O)Nc1ccc2[nH]c3c(C(=O)NCCN(C)C)cccc3c(=O)c2c1
- IC50 (P388): 22 µM

Compound: O=c1c2ccccc2n(CCCCN2CCN(CCO)CC2)c2c(Cl)cccc12
- IC50 (HL-60 [15]): 0.45 µM
- IC50 (HL60/ADR): 1.07 µM
- IC50 [16]: 0.49 µM

Compound: CCN(CC)CCCCn1c2ccccc2c(=O)c2cc(F)ccc21
- IC50 (HL-60 [7]): 0.51 µM

Compound: COc1cc(Cn2c3ccc(C(=O)CCN4CCCC4)cc3c(=O)c3cc(C(=O)NCCN4CCCC4)ccc32)cc(OC)c1
- IC50 (CCRF-CEM): 0.28 µM

- IC50 (PC-3 [11]): 2 µM
Compound: CCN(CC)CCNC(=O)c1ccc([N+](=O)[O-])c2[nH]c3ccccc3c(=O)c12

Compound: O=C(c1cccc2c(=O)c3ccccc3[nH]c12)N1CCN(c2ccccc2)CC1
- IC50 (MCF7 [2]): 4.5 µM
- IC50 (MCF7-DOX [3]): 6.5 µM
- IC50 [4]: 5.1 µM

Compound: CC(=O)Nc1cc2c(=O)c3ccccc3n3c(=O)n(CCN(C)C)c(=O)c(c1)c23
- IC50 (P388): 0.86 µM

Compound: O=c1c2ccccc2n(CCCCN2CCN(CCO)CC2)c2ccc(Br)cc12
- IC50 [17]: 3.7 µM

Compound: O=C(NC(=O)n1c(-c2ccccc2)nc2ccc(Br)cc2c1=O)c1cccc2c(=O)c3ccccc3[nH]c12
- IC50 [18]: 6 µM
- IC50 (MCF7 [19]): 7.9 µM
- IC50 (MCF7 [20]): 2.9 µM
- IC50 (WiDr): 9.8 µM

- IC50 [12]: 1.8 µM
- IC50 (MCF7 [13]): 5.2 µM
Compound: COc1ccc(CNC(=O)Cn2c3ccccc3c(=O)c3cc(C)ccc32)cc1

Compound: CC(C)=CCc1c(O)c(CC=C(C)C)c2c(c1O)c(=O)c1ccccc1n2C
- Activity (Raji): 48%

- IC50 (MCF7 [13]): 5.2 µM
Compound: Cc1ccc2c(c1)c(=O)c1ccccc1n2CC(=O)NCc1ccccc1

Compound: COc1cc2[nH]c3c(O)cccc3c(=O)c2c(O)c1CC=C(C)C
- IC50 [21]: 1.43 µg/mL (≈ 4.4 µM)
- IC50 (HepG2 [22]): 1.43 µg/mL (≈ 4.4 µM)

Compound: COc1cc(O)c(OC)c2c1c(=O)c1cccc(O)c1n2C
- IC50 (MCF7 [23]): 0.22 µM
- IC50 (HepG2 [24]): 0.22 µM

Compound: COc1cccc2c(=O)c3ccccc3n(CCCCN3CCN(CCO)CC3)c12
- IC50 [17]: < 6 µM

Compound: Cc1ccc2c(c1)c(=O)c1ccccc1n2CCCCN(CCO)CCO
- IC50 (MCF7 [25]): 6.1 µM

Compound: Cc1cccc2c(=O)c3ccccc3n(CCCCN(CCO)CCO)c12
- IC50 (MCF7 [25]): 8.1 µM

Compound: O=c1c2ccccc2[nH]c2ccccc12 [ACRIDONE]
- inhibition in vivo at 1 mg/kg (MCF7 [26]): 29%

Compound: COc1cc2c(c(O)c1OC)c(=O)c1ccccc1n2C [ARBORININE]
- IC50 (MCF7 [27]): 1.84 µM
- IC50 (HeLa): 1.84 µM
- IC50 (A-431): 1.84 µM

- IC50 (MCF7 [28]): 12.5 µM
- IC50 (HepG2 [29]): 12.5 µM
- IC50 (A549): 12.5 µM
- IC50 (PC-3 [30]): 12.5 µM
Compound: COc1c(O)ccc2c(=O)c3c(O)cc4c(c3n(C)c12)C=CC(C)(C)O4 [CITRACRIDONE I]

Compound: COc1cc(O)c2c(=O)c3cccc(O)c3n(C)c2c1OC [CITRUSININE-I]
- IC50 (MCF7 [23]): 0.22 µM
- IC50 (HepG2 [24]): 0.22 µM

From ChEMBL document CHEMBL5331043, “A comprehensive review on acridone based derivatives as future anti-cancer agents and their structure activity relationships” (Eur J Med Chem, 2022)
